In brackets after ≈: the same amount, converted by molar mass.
Columns and labels:
in vivo = conditions: mouse, iv
mice = mice (i.v.)
[1] = system: Streptococcus pyogenes, G-36; test: Antibacterial activity in vitro, MIC (Table 1); format: cell-based; conditions: G36, dilution method on plate culture (heart infusion agar), 10^6/ml, 37° C., 18 hours, read-out: Minimum Inhibitory Concentration (MIC)
Protocol: (§1) *Determined by the standard method of the Japan Society of Chemotherapy:
(§2) dilution method on plate culture (heart infusion agar culture), 10^6
(§3) /ml of bacteria were seeded and incubated at 37° C. for 18 hours.

[2] = system: Pseudomonas aeruginosa, 2063; test: Antibacterial activity in vitro, MIC (Table 1); format: cell-based; conditions: dilution method on plate culture (heart infusion agar), 10^6/ml, 37° C., 18 hours, read-out: Minimum Inhibitory Concentration (MIC)
Protocol: as §1, §2, §3

[3] = system: Bacillus subtilis, ATCC 6633; test: Antibacterial activity in vitro, MIC (Table 1); format: cell-based; conditions: ATCC6633, dilution method on plate culture (heart infusion agar), 10^6/ml, 37° C., 18 hours, read-out: Minimum Inhibitory Concentration (MIC)
Protocol: as §1, §2, §3

[4] = system: Staphylococcus aureus, 209 P; test: Antibacterial activity in vitro, MIC (Table 1); format: cell-based; conditions: dilution method on plate culture (heart infusion agar), 10^6/ml, 37° C., 18 hours, read-out: Minimum Inhibitory Concentration (MIC)
Protocol: as §1, §2, §3

[5] = system: Enterobacter cloacae, 12001; test: Antibacterial activity in vitro, MIC (Table 1); format: cell-based; conditions: read-out: Minimum Inhibitory Concentration (MIC)
Protocol: as §1, §2, §3

[6] = system: Shigella flexneri 2a, 5503; test: Antibacterial activity in vitro, MIC (Table 1); format: cell-based; conditions: dilution method on plate culture (heart infusion agar), 10^6/ml, 37° C., 18 hours, read-out: Minimum Inhibitory Concentration (MIC)
Protocol: as §1, §2, §3

Proteus vulgaris, 3167 [7] = test: Antibacterial activity in vitro, MIC (Table 1); format: cell-based; conditions: read-out: Minimum Inhibitory Concentration (MIC)
Protocol: as §1, §2, §3

[8] = system: Serratia marcescens, 13001; test: Antibacterial activity in vitro, MIC (Table 1); format: cell-based; conditions: dilution method on plate culture (heart infusion agar), 10^6/ml, 37° C., 18 hours, read-out: Minimum Inhibitory Concentration (MIC)
Protocol: as §1, §2, §3

[9] = system: Klebsiella pneumoniae, 501; test: Antibacterial activity in vitro, MIC (Table 1); format: cell-based; conditions: dilution method on plate culture (heart infusion agar), 10^6/ml, 37° C., 18 hours, read-out: Minimum Inhibitory Concentration (MIC)
Protocol: as §1, §2, §3

Escherichia coli NIHJ [10] = test: Antibacterial activity in vitro, MIC (Table 1); format: cell-based; conditions: read-out: Minimum Inhibitory Concentration (MIC)
Protocol: as §1, §2, §3

Proteus mirabilis, 1287 [11] = test: Antibacterial activity in vitro, MIC (Table 1); format: cell-based; conditions: dilution method on plate culture (heart infusion agar), 10^6/ml, 37° C., 18 hours, read-out: Minimum Inhibitory Concentration (MIC)
Protocol: as §1, §2, §3

[12] = system: Streptococcus pyogenes, G-36; test: Antibacterial activity in vitro, MIC (Table 2); format: cell-based; conditions: G36, MullerHinton Bouillon, 10^6/ml, 37° C., 18 hours, read-out: Minimum Inhibitory Concentration (MIC)
Protocol: (§4) *Determined in MullerHinton Bouillon, 10^6 /ml of bacteria were seede
(§5) and incubated at 37° C. for 18 hours.

[13] = system: Pseudomonas aeruginosa, 2063; test: Antibacterial activity in vitro, MIC (Table 2); format: cell-based; conditions: MullerHinton Bouillon, 10^6/ml, 37° C., 18 hours, read-out: Minimum Inhibitory Concentration (MIC)
Protocol: as §4, §5

[14] = system: Bacillus subtilis, ATCC 6633; test: Antibacterial activity in vitro, MIC (Table 2); format: cell-based; conditions: ATCC6633, MullerHinton Bouillon, 10^6/ml, 37° C., 18 hours, read-out: Minimum Inhibitory Concentration (MIC)
Protocol: as §4, §5

[15] = system: Staphylococcus aureus, 209 P; test: Antibacterial activity in vitro, MIC (Table 2); format: cell-based; conditions: MullerHinton Bouillon, 10^6/ml, 37° C., 18 hours, read-out: Minimum Inhibitory Concentration (MIC)
Protocol: as §4, §5

[16] = system: Enterobacter cloacae, 12001; test: Antibacterial activity in vitro, MIC (Table 2); format: cell-based; conditions: MullerHinton Bouillon, 10^6/ml, 37° C., 18 hours, read-out: Minimum Inhibitory Concentration (MIC)
Protocol: as §4, §5

[17] = system: Shigella flexneri 2a, 5503; test: Antibacterial activity in vitro, MIC (Table 2); format: cell-based; conditions: MullerHinton Bouillon, 10^6/ml, 37° C., 18 hours, read-out: Minimum Inhibitory Concentration (MIC)
Protocol: as §4, §5

[18] = system: Pseudomonas sepacia, II D 5132; test: Antibacterial activity in vitro, MIC (Table 2); format: cell-based; conditions: IID5132, MullerHinton Bouillon, 10^6/ml, 37° C., 18 hours, read-out: Minimum Inhibitory Concentration (MIC)
Protocol: as §4, §5

Proteus vulgaris, 3167 [19] = test: Antibacterial activity in vitro, MIC (Table 2); format: cell-based; conditions: MullerHinton Bouillon, 10^6/ml, 37° C., 18 hours, read-out: Minimum Inhibitory Concentration (MIC)
Protocol: as §4, §5

[20] = system: Serratia marcescens, 13001; test: Antibacterial activity in vitro, MIC (Table 2); format: cell-based; conditions: MullerHinton Bouillon, 10^6/ml, 37° C., 18 hours, read-out: Minimum Inhibitory Concentration (MIC)
Protocol: as §4, §5

[21] = system: Klebsiella pneumoniae, 501; test: Antibacterial activity in vitro, MIC (Table 2); format: cell-based; conditions: MullerHinton Bouillon, 10^6/ml, 37° C., 18 hours, read-out: Minimum Inhibitory Concentration (MIC)
Protocol: as §4, §5

Escherichia coli NIHJ [22] = test: Antibacterial activity in vitro, MIC (Table 2); format: cell-based; conditions: MullerHinton Bouillon, 10^6/ml, 37° C., 18 hours, read-out: Minimum Inhibitory Concentration (MIC)
Protocol: as §4, §5

Proteus mirabilis, 1287 [23] = test: Antibacterial activity in vitro, MIC (Table 2); format: cell-based; conditions: MullerHinton Bouillon, 10^6/ml, 37° C., 18 hours, read-out: Minimum Inhibitory Concentration (MIC)
Protocol: as §4, §5

[24] = system: Pseudomonas sepacia, II D 1340; test: Antibacterial activity in vitro, MIC (Table 1); format: cell-based; conditions: IID1340, dilution method on plate culture (heart infusion agar), 10^6/ml, 37° C., 18 hours, read-out: Minimum Inhibitory Concentration (MIC)
Protocol: as §1, §2, §3

[25] = system: gram-negative and gram-positive bacteria (test organisms); test: Antibacterial activity (in vitro), comparison in words; format: cell-based; conditions: compounds of this invention versus known compounds / PPA
Protocol: as §1, §2, §3, §4, §5

[26] = Enterobacter cloacae, 12001, dilution method on plate culture (heart infusion agar), 10^6/ml, 37° C., 18 hours
[27] = Proteus vulgaris, 3167, dilution method on plate culture (heart infusion agar), 10^6/ml, 37° C., 18 hours
[28] = Escherichia coli NIHJ, dilution method on plate culture (heart infusion agar), 10^6/ml, 37° C., 18 hours

SMILES	LD50 (in vivo)	toxicity (in words) (mice)	MIC [1]	MIC [2]	MIC [3]	MIC [4]	MIC [5, 26]	MIC [6]	MIC (Proteus vulgaris, 3167 [7]; [27])	MIC [8]	MIC [9]	MIC (Escherichia coli NIHJ [10]; [28])	MIC (Proteus mirabilis, 1287 [11])	MIC [12]	MIC [13]	MIC [14]	MIC [15]	MIC [16]	MIC [17]	MIC [18]	also measured
CC1CCc2c(N3CCN(C)CC3)c(F)cc3c(=O)c(C(=O)O)cn1c23 (stereo not drawn) [8-(4-methyl-1-piperazinyl)-9-fluoro-5-methyl-6,7-dihydro-1-oxo-1H,5H-benz[ij]quinolizine-2-carboxylic acid, reference compound]	135 mg/kg	comparatively high toxicity																			
CC1COc2c(N3CCN(C)CC3)c(F)cc3c(=O)c(C(=O)O)cn1c23 (stereo not drawn) [Ia, 9-fluoro-10-(4-methyl-1-piperazinyl)-3-methyl-7-oxo-2,3-dihydro-7H-pyrido[1,2,3-de][1,4]benzoxazine-6-carboxylic acid]	380 mg/kg		1.56 µg/mL (≈ 4.32 µM)	1.56 µg/mL (≈ 4.32 µM)	0.2 µg/mL (≈ 0.553 µM)	0.39 µg/mL (≈ 1.08 µM)	0.1 µg/mL (≈ 0.277 µM)	0.05 µg/mL (≈ 0.138 µM)	0.05 µg/mL (≈ 0.138 µM)	0.2 µg/mL (≈ 0.553 µM)	0.2 µg/mL (≈ 0.553 µM)	≤ 0.025 µg/mL	0.1 µg/mL (≈ 0.277 µM)	1.56 µg/mL (≈ 4.32 µM)	0.78 µg/mL (≈ 2.16 µM)	0.1 µg/mL (≈ 0.277 µM)	0.39 µg/mL (≈ 1.08 µM)	0.1 µg/mL (≈ 0.277 µM)	≤ 0.05 µg/mL	12.5 µg/mL (≈ 34.6 µM)	MIC (Proteus vulgaris, 3167 [19]): ≤ 0.05 µg/mL; MIC [20]: 0.1 µg/mL (≈ 0.277 µM); MIC [21]: 0.39 µg/mL (≈ 1.08 µM); MIC (Escherichia coli NIHJ [22]): ≤ 0.05 µg/mL; MIC (Proteus mirabilis, 1287 [23]): 0.1 µg/mL (≈ 0.277 µM)
CC1COc2c(N3CCNCC3)c(F)cc3c(=O)c(C(=O)O)cn1c23 (stereo not drawn) [Ib, 9-fluoro-3-methyl-7-oxo-10-(1-piperazinyl)-2,3-dihydro-7H-pyrido[1,2,3-de][1,4]benzoxazine-6-carboxylic acid]			3.13 µg/mL (≈ 9.01 µM)	0.78 µg/mL (≈ 2.25 µM)	0.39 µg/mL (≈ 1.12 µM)	0.39 µg/mL (≈ 1.12 µM)	0.2 µg/mL (≈ 0.576 µM)	0.05 µg/mL (≈ 0.144 µM)	0.05 µg/mL (≈ 0.144 µM)	0.78 µg/mL (≈ 2.25 µM)	0.39 µg/mL (≈ 1.12 µM)	≤ 0.025 µg/mL	0.1 µg/mL (≈ 0.288 µM)								MIC [24]: 12.5 µg/mL (≈ 36 µM)
CC1COc2c(N3CCC(O)C3)c(F)cc3c(=O)c(C(=O)O)cn1c23 (stereo not drawn) [Ic, 9-fluoro-10-(3-hydroxy-1-pyrrolidinyl)-3-methyl-7-oxo-2,3-dihydro-7H-pyrido[1,2,3-de][1,4]benzoxazine-6-carboxylic acid]			0.78 µg/mL (≈ 2.24 µM)	1.56 µg/mL (≈ 4.48 µM)	0.05 µg/mL (≈ 0.144 µM)	0.1 µg/mL (≈ 0.287 µM)	0.2 µg/mL (≈ 0.574 µM)	0.1 µg/mL (≈ 0.287 µM)	0.1 µg/mL (≈ 0.287 µM)	0.78 µg/mL (≈ 2.24 µM)	0.78 µg/mL (≈ 2.24 µM)	0.05 µg/mL (≈ 0.144 µM)	0.1 µg/mL (≈ 0.287 µM)								
CC1COc2c(N3CCN(C)CC3)c(Cl)cc3c(=O)c(C(=O)O)cn1c23 (stereo not drawn) [Id, 9-chloro-3-methyl-10-(4-methyl-1-piperazinyl)-7-oxo-2,3-dihydro-7H-pyrido[1,2,3-de][1,4]benzoxazine-6-carboxylic acid]														12.5 µg/mL (≈ 33.1 µM)	0.78 µg/mL (≈ 2.06 µM)	0.1 µg/mL (≈ 0.265 µM)	0.2 µg/mL (≈ 0.529 µM)	≤ 0.05 µg/mL	≤ 0.05 µg/mL	6.25 µg/mL (≈ 16.5 µM)	MIC (Proteus vulgaris, 3167 [19]): ≤ 0.05 µg/mL; MIC [20]: 0.1 µg/mL (≈ 0.265 µM); MIC [21]: 0.2 µg/mL (≈ 0.529 µM); MIC (Escherichia coli NIHJ [22]): ≤ 0.05 µg/mL; MIC (Proteus mirabilis, 1287 [23]): 0.1 µg/mL (≈ 0.265 µM)
CCn1cc(C(=O)O)c(=O)c2cnc(N3CCNCC3)nc21 [PPA, 8-ethyl-5,8-dihydro-5-oxo-2-(1-piperazinyl)-pyrido[2,3-d]pyrimidine-6-carboxylic acid, reference compound]		low toxicity	> 100 µg/mL	25 µg/mL (≈ 82.4 µM)	6.25 µg/mL (≈ 20.6 µM)	12.5 µg/mL (≈ 41.2 µM)		1.56 µg/mL (≈ 5.14 µM)		6.25 µg/mL (≈ 20.6 µM)	6.25 µg/mL (≈ 20.6 µM)		6.25 µg/mL (≈ 20.6 µM)								antibacterial activity (in words) [25]: much weaker than the compounds of this invention; MIC [24]: 100 µg/mL (≈ 330 µM); MIC ([5]; Enterobacter cloacae, 12001, 18 h): 1.56 µg/mL (≈ 5.14 µM); MIC (Proteus vulgaris, 3167 [7]; Proteus vulgaris, 3167, 18 h): 1.56 µg/mL (≈ 5.14 µM); MIC (Escherichia coli NIHJ [10]; Escherichia coli, 18 h): 1.56 µg/mL (≈ 5.14 µM)

From US4382892A, “Benzoxazine derivatives” (Daiichi Seiyaku Co., Ltd., priority 1980, dated 1983)
